Data reported in patent US20220267753A1, “RATIONAL THERAPEUTIC TARGETING OF ONCOGENIC IMMUNE SIGNALING STATES IN MYELOID MALIGNANCIES VIA THE UBIQUITIN CONJUGATING ENZYME UBE2N” (CHILDREN'S HOSPITAL MEDICAL CENTER, priority 2019, published 2022).

Tests used:
[1] = system: patient-derived AML cells; experiment: Viability (MTS) of patient-derived AML samples (PDX AMLs); format: cell-based, human; details: hierarchical clustering, MTS 24 h
Method: AML cell lines (5×10^3 cells/well) were seeded in 96-well plates and grown for 24 to 96 h in serum (10%)-containing medium in the presence or absence of inhibitors at the indicated concentrations. Proliferation was analyzed by means of an MTS assay using the CellTiter 96 Aqueous One Solution Cell Proliferation Assay (Promega, Madison, Wis., USA), according to the manufacturer's instructions. Data are mean with standard deviation from three independent experiments in technical triplicates. For the screening of 160 compounds from the UC library, the cell metabolic activity was assessed at 24 hours of treatment of MOLM-13 cells. Top 15 candidates were re-screened at 2 μM, and the cell metabolic activity was determined at 24 hours of treatment. In certain experiments, cell viability was determined by staining the cells with trypan blue at a 1/2 dilution and counting total number of viable cells upon treatment with UC-764864 or DMSO control. The cells were counted daily for 4 days using an automated cell counter (Countess II FL from Life Technologies). […] UC-764864 was added at the indicated concentrations and cells were incubated with drug for 3 days, at which point cell viability was measured by MTS according to manufacturer's instructions. […]

[2] = system: MDSL; experiment: Cell proliferation MTS assay; format: cell-based; details: Homo sapiens, 24 hours
Method: (§1) AML cell lines (5×10^3 cells/well) were seeded in 96-well plates and grown for 24 to 96 h in serum (10%)-containing medium in the presence or absence of inhibitors at the indicated concentrations. Proliferation was analyzed by means of an MTS assay using the CellTiter 96 Aqueous One Solution Cell Proliferation Assay (Promega, Madison, Wis., USA), according to the manufacturer's instructions. Data are mean with standard deviation from three independent experiments in technical triplicates. For the screening of 160 compounds from the UC library, the cell metabolic activity was assessed at 24 hours of treatment of MOLM-13 cells. Top 15 candidates were re-screened at 2 μM, and the cell metabolic activity was determined at 24 hours of treatment. In certain experiments, cell viability was determined by staining the cells with trypan blue at a 1/2 dilution and counting total number of viable cells upon treatment with UC-764864 or DMSO control. The cells were counted daily for 4 days using an automated cell counter (Countess II FL from Life Technologies). The cell proliferation in primary AMLs in FIG. 9E was performed as follows: 50,000 cells were plated in duplicate in a 96 well plate in IMDM containing 20% heat inactivated FBS plus 10 ng/ml of each SCF, IL3, IL6, TPO, and FLT3. UC-764864 was added at the indicated concentrations and cells were incubated with drug for 3 days, at which point cell viability was measured by MTS according to manufacturer's instructions.

[3] = system: HL-60; experiment: Cell proliferation MTS assay; format: cell-based; details: Homo sapiens; HL-60, MTS, 24 hours
Method: as §1

[4] = system: THP-1; experiment: Cell proliferation MTS assay; format: cell-based; details: Homo sapiens; THP-1, MTS, 24 hours
Method: as §1

[5] = system: KG-1a; experiment: Cell proliferation MTS assay; format: cell-based; details: Homo sapiens, 24 hours
Method: as §1

[6] = system: MV4-11; experiment: Cell proliferation MTS assay; format: cell-based; details: Homo sapiens; MV4-11, MTS, 24 hours
Method: as §1

[7] = system: NOMO-1; experiment: Cell proliferation MTS assay; format: cell-based; details: Homo sapiens; NOMO-1, MTS, 24 hours
Method: as §1

[8] = system: Kasumi-1; experiment: Cell proliferation MTS assay; format: cell-based; details: Homo sapiens; Kasumi-1, MTS, 24 hours
Method: as §1

[9] = system: SKM-1; experiment: Cell proliferation MTS assay; format: cell-based; details: Homo sapiens; SKM-1, MTS, 24 hours
Method: as §1

[10] = system: MOLM-14; experiment: Cell proliferation MTS assay; format: cell-based; details: Homo sapiens; MOLM-14, MTS, 24 hours
Method: as §1

[11] = system: MDS92; experiment: Cell proliferation MTS assay; format: cell-based; details: Homo sapiens, 24 hours
Method: as §1

[12] = target: T1, UBE2E1 (Homo sapiens, UniProt P51965); experiment: Thioester bond formation assay; details: same biochemical assay
T1 construct: purchased Enzo Life Science BML-UW8710
Method: (§2) An in vitro Ubiquitin-E2 thioester (TE) bond formation assay was performed as described (Enzo Life Science, #BML-UW9920-0001, Farmingdale, N.Y.). The reaction was prepared as follows: 10×E2 (UBE2N/Mms2, No. BML-UW9565; UbcH5a, No. BML-UW9050; or UbcH6, Prod. No. BML-UW8710) were incubated with UC-764864 or UC-764865 at 1 or 2 μM for 30 minutes at room temperature. After the incubation period, the following reagents were added to the reaction: distilled water, 10× ubiquitination buffer, inorganic pyrophosphatase solution (100 U/mL in 20 mM Tris-HCl, pH 7.5, Sigma, 83205, St. Louis, Mo.), 50 mM DTT, 0.1 M Mg-ATP, 20×E1 (recombinant human ubiquitin-activating enzyme) and 20× biotinylated ubiquitin to a final volume of 10 p.l. The mixture was incubated for 4 hours at 37° C. The reaction was stopped by adding 10 p.l 2× non-reducing gel loading buffer. 15 p.l of the samples were run on SDS-PAGE gels and transferred to PVDF membrane. […] After washing the membrane for 6×10 mins with TBS-T on a rocking platform, total ubiquitin was detected with ECL detection reagent (Pierce™ ECL Western Blotting Substrate, #32106, Appleton, Wis.) according to the manufacturer's instructions. Detect emitted signal with Biorad ChemiDoc™ MP and analyzed with Image lab software 6.0.1 (Biorad, Hercules, Calif.) or Image J [67]. […]

[13] = target: T2, UBE2D1 (Homo sapiens, UniProt P51668); experiment: Thioester bond formation assay; details: same biochemical assay
T2 construct: purchased Enzo Life Science BML-UW9050
Method: as §2

[14] = target: T3, UBE2N/UBE2V1 (Homo sapiens, UniProt P61088); experiment: Thioester bond formation assay; format: biochemical; details: read-out: inhibition of UBE2N-Ub thioester conjugate formation
T3 construct: purchased Enzo Life Science BML-UW9565
Method: as §2

[15] = Microsomal stability (human liver microsomes); format: in vitro ADME

T3 sequence (P61088 whole entry): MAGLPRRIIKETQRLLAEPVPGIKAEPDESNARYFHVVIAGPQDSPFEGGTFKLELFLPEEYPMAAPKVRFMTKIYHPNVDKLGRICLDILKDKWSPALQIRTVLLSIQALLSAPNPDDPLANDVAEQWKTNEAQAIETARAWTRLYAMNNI
T3 sequence (Q13404 whole entry partner): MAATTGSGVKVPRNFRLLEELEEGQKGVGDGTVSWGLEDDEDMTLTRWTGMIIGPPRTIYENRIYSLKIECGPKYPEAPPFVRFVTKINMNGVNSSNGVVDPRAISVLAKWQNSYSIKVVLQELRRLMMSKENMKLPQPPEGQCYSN
T1 sequence (P51965 whole entry): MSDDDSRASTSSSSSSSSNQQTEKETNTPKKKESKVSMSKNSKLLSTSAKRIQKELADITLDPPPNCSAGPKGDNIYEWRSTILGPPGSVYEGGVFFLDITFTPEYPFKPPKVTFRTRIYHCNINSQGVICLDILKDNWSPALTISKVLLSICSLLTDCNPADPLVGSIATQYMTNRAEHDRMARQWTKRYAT
T2 sequence (P51668 whole entry): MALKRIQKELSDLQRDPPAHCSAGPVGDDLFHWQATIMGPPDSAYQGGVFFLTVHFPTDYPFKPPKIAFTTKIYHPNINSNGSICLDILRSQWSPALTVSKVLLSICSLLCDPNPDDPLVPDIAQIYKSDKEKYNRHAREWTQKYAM

- IC50 [3]: 4.3 µM
- IC50 [4]: 2.5 µM
- IC50 [6]: 5 µM
- IC50 [9]: 0.4 µM
- IC50 [10]: 0.02 µM
- interference with activity of UBE2E1 [12]: did not interfere
- interference with activity of UBE2D1 [13]: did not interfere
- inhibition at 1 µM ([14]; 1 μM): 20%
- inhibition at 2 µM ([14]; 2 μM): 80%
- metabolism in human liver microsomes [15]: readily metabolized
Compound: CCc1ccc(C(=O)C=CSc2nc3ccc(C)cc3[nH]2)cc1 [UC-764864, 1-(4-ethylphenyl)-3-[(6-methyl-1H-benzimidazol-2-yl)sulfanyl]prop-2-en-1-one]
- sensitivity class of the other 20 PDX AMLs ([1]; 20 of 26 PDX AMLs): resistant
- sensitivity class of PDX AMLs JM1, JM7, JM18, JM26, JM30, JM40 ([1]; six of 26 PDX AMLs): sensitive
- IC50 [2]: 5.6 µM
- IC50 [5]: > 10 µM
- IC50 [7]: 6.7 µM
- IC50 [8]: 6.6 µM
- IC50 [11]: > 10 µM
